Our source for the IC50 values is patent publication US20090156642A1, “5-Membered heterocyclic compound” (Takeda Pharmaceutical Company Limited, priority 2007, published 2009).

Structures can show the parent of a compound that is named as a salt.

The target in this experiment is T1, proton, potassium-adenosine triphosphatase (H+,K+-ATPase) (Sus scrofa, UniProt P19156).
T1 construct: a gastric mucous membrane microsomal fraction was prepared from the stomach of swine
T1 sequence (P19156 2-1034): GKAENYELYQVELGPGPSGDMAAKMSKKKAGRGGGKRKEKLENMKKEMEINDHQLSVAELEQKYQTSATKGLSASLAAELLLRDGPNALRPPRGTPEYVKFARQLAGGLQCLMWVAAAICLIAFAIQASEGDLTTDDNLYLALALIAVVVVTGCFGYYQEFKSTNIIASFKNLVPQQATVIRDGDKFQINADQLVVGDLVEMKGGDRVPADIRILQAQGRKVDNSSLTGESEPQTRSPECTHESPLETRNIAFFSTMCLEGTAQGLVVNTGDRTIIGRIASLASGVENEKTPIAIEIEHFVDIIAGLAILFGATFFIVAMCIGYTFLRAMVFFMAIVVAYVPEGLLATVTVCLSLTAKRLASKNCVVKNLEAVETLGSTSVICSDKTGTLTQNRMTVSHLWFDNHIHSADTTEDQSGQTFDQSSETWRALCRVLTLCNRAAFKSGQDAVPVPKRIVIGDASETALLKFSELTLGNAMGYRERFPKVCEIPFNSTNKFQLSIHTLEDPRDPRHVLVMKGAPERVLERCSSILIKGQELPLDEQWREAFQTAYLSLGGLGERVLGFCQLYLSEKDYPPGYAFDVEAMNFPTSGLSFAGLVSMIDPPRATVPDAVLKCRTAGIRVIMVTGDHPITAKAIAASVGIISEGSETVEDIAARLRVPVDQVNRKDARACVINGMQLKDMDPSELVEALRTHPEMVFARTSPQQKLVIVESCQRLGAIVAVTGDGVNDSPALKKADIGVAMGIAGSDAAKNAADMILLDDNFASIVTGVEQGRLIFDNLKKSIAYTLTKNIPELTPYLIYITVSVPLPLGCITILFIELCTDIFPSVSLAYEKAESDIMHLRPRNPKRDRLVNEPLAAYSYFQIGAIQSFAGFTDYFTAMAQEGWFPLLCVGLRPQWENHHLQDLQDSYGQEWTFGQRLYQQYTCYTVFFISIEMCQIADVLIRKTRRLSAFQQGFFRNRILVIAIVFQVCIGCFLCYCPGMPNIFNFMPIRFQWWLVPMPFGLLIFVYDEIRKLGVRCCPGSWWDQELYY
T1 sequence (P18434 whole entry partner): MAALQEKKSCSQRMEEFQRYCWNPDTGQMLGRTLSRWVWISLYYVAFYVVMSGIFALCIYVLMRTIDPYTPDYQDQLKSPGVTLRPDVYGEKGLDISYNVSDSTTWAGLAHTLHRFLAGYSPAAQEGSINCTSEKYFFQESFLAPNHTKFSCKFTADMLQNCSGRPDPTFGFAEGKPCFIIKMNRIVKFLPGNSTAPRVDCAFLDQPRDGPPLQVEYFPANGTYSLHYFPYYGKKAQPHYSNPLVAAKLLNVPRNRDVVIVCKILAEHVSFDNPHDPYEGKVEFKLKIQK
Nature of the experiment: Proton potassium-adenosine triphosphatase (H+,K+-ATPase) inhibitory activity test. It is filed as biochemical. Particulars: swine gastric mucous membrane microsomal fraction, pH 6.5, 37° C., 10 mmol/L potassium chloride. The method, then: Proton Potassium-Adenosine Triphosphatase (H^+,K^+-ATPase) Inhibitory Activity Test
According to the method [Biochim. Biophys. Acta, 728, 31 (1983)] of Wallmark et al., a gastric mucous membrane microsomal fraction was prepared from the stomach of swine. First, the stomach was removed, washed with tap water, and immersed in 3 mol/L brine, and the surface of the mucous membrane was wiped with a paper towel. The gastric mucous membrane was detached, chopped, and homogenized in a 0.25 mol/L saccharose solution (pH 6.8) containing 1 mmol/L EDTA and 10 mmol/L tris-hydrochloric acid using polytron (Kinematica). The obtained homogenate was centrifuged at 20,000×g for 30 min and the supernatant was centrifuged at 100,000×g for 90 min. The precipitate was suspended in 0.25 mol/L saccharose solution, the suspension was superimposed on a 0.25 mol/L saccharose solution containing 7.5% Ficoll, and centrifuged at 100,000×g for 5 hr. The fraction containing the interface between the both layers was recovered, and centrifugally washed with 0.25 mol/L saccharose solution.
The obtained microsomal fraction was used as a proton, potassium-adenosine triphosphatase standard product.
To 40 μL of a 50 mmol/L HEPES-tris buffer (5 mmol/L magnesium chloride, 10 mmol/L potassium chloride, 10 μmol/L valinomycin, pH=6.5) containing 2.5 μg/mL (based on the protein concentration) of the enzyme standard product was added a test compound (5 μL) dissolved in a 10% aqueous dimethyl sulfoxide solution, and the mixture was incubated at 37° C. for 30 min. The enzyme reaction was started by adding 5 μL of a 2 mmol/L adenosine triphosphate tris salt solution (50 mmol/L HEPES-tris buffer (5 mmol/L magnesium chloride, pH 6.5)). The enzyme reaction was carried out at 37° C. for 20 min, and 15 μL of a malachite green solution (0.12% malachite green solution in sulfuric acid (2.5 mol/L), 7.5% ammonium molybdate and 11% Tween 20 were mixed at a ratio of 100:25:2) was added to quench the reaction. After allowing to stand at room temperature for 15 min, the resulting reaction product of inorganic phosphorus with malachite green was colorimetrically determined at a wavelength of 610 nm. In addition, the amount of the inorganic phosphoric acid in the reaction solution free of potassium chloride was measured in the same manner, which was subtracted from the inorganic phosphoric acid amount in the presence of potassium chloride to determine the proton, potassium-adenosine triphosphatase activity. The inhibitory rate (%) was determined from the activity value of the control and the activity values of various concentrations of the test compound, and the 50% inhibitory concentration (IC50) of the proton, potassium-adenosine triphosphatase was determined.
The compound `CNCc1cc(-c2cccnc2F)c(S(=O)(=O)c2ccccc2)s1` [Example 2, 1-[4-(2-fluoropyridin-3-yl)-5-(phenylsulfonyl)-2-thienyl]-N-methylmethanamine hydrochloride] came in with an IC50 of 32 nM.

As to `CNCc1cc(-c2ccccc2F)c(S(=O)(=O)c2cccc(OC)c2)s1` [Example 4, 1-{4-(2-fluorophenyl)-5-[(3-methoxyphenyl)sulfonyl]-2-thienyl}-N-methylmethanamine fumarate], half-maximal inhibition (IC50) required 64 nM.

In the case of `CNCc1nc(-c2ccccc2F)c(S(=O)(=O)c2cccc(OC)c2)s1` [Example 13, 1-{4-(2-fluorophenyl)-5-[(3-methoxyphenyl)sulfonyl]-1,3-thiazol-2-yl}-N-methylmethanamine hydrochloride], the IC50 came out at 46 nM.

`CNCc1cn(S(=O)(=O)c2cccs2)c(-c2ccccc2F)n1` [Example 18, 1-[2-(2-fluorophenyl)-1-(2-thienylsulfonyl)-1H-imidazol-4-yl]-N-methylmethanamine fumarate] showed an IC50 of 64 nM.

On to `CNCc1cc(-c2ccccc2F)c(S(=O)(=O)c2ccccc2)s1` [Example 19, 1-[4-(2-fluorophenyl)-5-(phenylsulfonyl)thiophen-2-yl]-N-methylmethanamine hydrochloride], for which the IC50 was 88 nM.

In the case of `CNCc1cc(-c2cccnc2F)c(S(=O)(=O)c2cccnc2)s1` [Example 48, 1-[4-(2-fluoropyridin-3-yl)-5-(pyridin-3-ylsulfonyl)thiophen-2-yl]-N-methylmethanamine], inhibition was half-maximal at 240 nM (IC50).

Take `CNCc1nc(-c2ccccc2F)c(S(=O)(=O)c2cccnc2)s1` [Example 56, 1-[4-(2-fluorophenyl)-5-(pyridin-3-ylsulfonyl)-1,3-thiazol-2-yl]-N-methylmethanamine fumarate]: the IC50 is 240 nM.

As to `CNCc1nc(-c2cccnc2F)c(S(=O)(=O)c2cccnc2)s1` [Example 60, 1-[4-(2-fluoropyridin-3-yl)-5-(pyridin-3-ylsulfonyl)-1,3-thiazol-2-yl]-N-methylmethanamine], the IC50 came to 310 nM.

Compound `CNCc1cc(S(=O)(=O)c2cccnc2)c(-c2cccnc2F)s1` [Example 65, 1-[5-(2-fluoropyridin-3-yl)-4-(pyridin-3-ylsulfonyl)thiophen-2-yl]-N-methylmethanamine] registered an IC50 of 250 nM.

`CNCc1cn(S(=O)(=O)c2ccccc2)c(-c2ccccc2F)n1` [Example 67, 1-[2-(2-fluorophenyl)-1-(phenylsulfonyl)-1H-imidazol-4-yl]-N-methylmethanamine fumarate] registered an IC50 of 28 nM.

Compound `CNCc1cc(S(=O)(=O)c2ccccc2)n(-c2cccnc2F)n1` [Example 79, 1-[1-(2-fluoropyridin-3-yl)-5-(phenylsulfonyl)-1H-pyrazol-3-yl]-N-methylmethanamine] displayed an IC50 of 190 nM.

`CNCc1cc(S(=O)(=O)c2cccnc2)n(-c2ccccc2F)n1` [Example 81, 1-[1-(2-fluorophenyl)-5-(pyridin-3-ylsulfonyl)-1H-pyrazol-3-yl]-N-methylmethanamine]: the IC50 is 130 nM.

Compound `CNCc1cc(S(=O)(=O)c2cccc(C#N)c2)n(-c2ccccc2Cl)n1` [Example 86, 3-({1-(2-chlorophenyl)-3-[(methylamino)methyl]-1H-pyrazol-5-yl}sulfonyl)benzonitrile hydrochloride] came in with an IC50 of 84 nM.

Consider `CNCc1cc(S(=O)(=O)c2cccnc2)n(-c2ccccc2Cl)n1` [Example 87, 1-[1-(2-chlorophenyl)-5-(pyridin-3-ylsulfonyl)-1H-pyrazol-3-yl]-N-methylmethanamine], for which the IC50 was found to be 86 nM.

Compound `CNCc1cc(S(=O)(=O)c2ccc(C)nc2)n(-c2ccccc2Cl)n1` [Example 89, 1-{1-(2-chlorophenyl)-5-[(6-methylpyridin-3-yl)sulfonyl]-1H-pyrazol-3-yl}-N-methylmethanamine] yielded an IC50 of 110 nM.

Consider `CNCc1cc(S(=O)(=O)c2cccnc2)n(-c2cccc(F)c2F)n1` [Example 98, 1-[1-(2,3-difluorophenyl)-5-(pyridin-3-ylsulfonyl)-1H-pyrazol-3-yl]-N-methylmethanamine], for which the IC50 stood at 220 nM.

In turn, `CNCc1cc(S(=O)(=O)c2ccc(C)nc2)n(-c2cccc(F)c2F)n1` [Example 99, 1-{1-(2,3-difluorophenyl)-5-[(6-methylpyridin-3-yl)sulfonyl]-1H-pyrazol-3-yl}-N-methylmethanamine] displayed an IC50 of 76 nM.

Compound `CNCc1cc(S(=O)(=O)c2cccnc2)n(-c2cccc(F)c2Cl)n1` [Example 113, 1-[1-(2-chloro-3-fluorophenyl)-5-(pyridin-3-ylsulfonyl)-1H-pyrazol-3-yl]-N-methylmethanamine fumarate] registered an IC50 of 180 nM.

One may read the IC50 as the concentration at which inhibition is half-maximal. Low values mean greater potency in that assay, high ones weaker potency in that assay.
